Assay results reported in patent US20060078630A1, “Method for the production of flavonoid-containing compositions and use thereof” (priority 2003, published 2006).

Columns and labels:
[1] = Antioxidant effect by the TEAC III method; type: biochemical; conditions: in comparison with Trolox and ascorbic acid
Protocol: The relative antioxidant effect of […] extract was determined by the TEAC III method in comparison with Trolox and ascorbic acid: The TEAC III method and other methods are described in Böhm V. (2000) Ernährungsumschau 47, pages 372-375.

[2] = system: phytohaemagglutinin-stimulated mononuclear cells from peripheral blood; experiment: Inhibition of proliferation of stimulated mononuclear cells by individual flavonoids (3H-thymidine incorporation); type: cell-based, human; conditions: luteolin, luteolin-7-glucoside, apigenin at 64-2 μg/ml; 1 μg/ml phytohaemagglutinin; 24 h + 18 h 3H-thymidine; FIG. 3b
Protocol: For this purpose, mononuclear cells from the peripheral blood of a health donor were isolated via Ficoll density gradients and incubated in RPMI medium with 5% foetal calf serum in microtitre plates. The cells were incubated in triplicates with the flavonoids luteolin, luteolin-7-glucoside and apigenin. The pure substances were dissolved in 70% ethanol and further diluted in medium. The final concentrations were 64, 32, 16, 8, 4, 2 and 0 μg/ml. After addition of the flavonoids, the cells were stimulated with 1 μg/ml of phytohaemagglutinin and incubated for 24 h in an incubator at 37° C. After addition of 1 μCurie of radioactive ^3H-thymidine, the cells were incubated for a further 18 h, and the incorporated radioactivity was then measured in a scintillation counter (Canberra-Packard).

[3] = system: activated mononuclear cells (lymphocytes); experiment: Induction of apoptosis in activated mononuclear cells (cell death detection ELISA); type: cell-based; conditions: individual flavonoids contained in the extracts; FIG. 5b
Protocol: After addition of the additives, the cells were stimulated with 1 μg/ml of phytohaemagglutinin and incubated for 48 h in an incubator. The apoptosis induction was then determined by measuring the oligonucleosomes (low molecular weight DNA fragments) formed in the cells (cell death detection ELISA). […] The apoptosis induction could be blocked by a caspase inhibitor, i.e. is caspase-induced (FIG. 5a).

Row | SMILES | relative antioxidant effect [1] | proliferation-inhibiting effect among individual flavonoids [2] | apoptosis-inducing activity among individual flavonoids [3]
1 | O=C1O[C@H]([C@@H](O)CO)C(O)=C1O [Ascorbic acid] | 1.1 |  | 
2 | Cc1c(C)c2c(c(C)c1O)CCC(C)(C(=O)O)O2 (stereo not shown) [Trolox] | 1.0 |  | 
3 | O=c1cc(-c2ccc(O)c(O)c2)oc2cc(O)cc(O)c12 [luteolin] |  | strongest proliferation-inhibiting effect | strongest apoptosis-inducing activity
